Test results: patent EP2982368A1, “Small molecule compounds displacing focal adhesion core components” (Universität Konstanz, priority 2014, dated 2016)

Assays:
FAK/Paxillin = target: T1, FAK/Paxillin (Mus musculus, UniProt P34152+Q8VI36); assay: FAK/Paxillin displacement by structurally related compounds (FootLocker series, confocal microscopy); format: cell-based
T1 construct: expressed in transfected cells; host or cells: mouse fibroblasts stably expressing GFP-FAK
Description: To determine whether compounds structurally related to Mb31 and Mb36 are likewise suitable to interfere with FAK localization at focal adhesions, mouse fibroblasts stably expressing GFP-FAK were treated for 30 min with 1, 10 or 20 µM of the following compounds: trans-3-hydroxy-β-nitrostyrene (THBN), trans-4-Chloro-β-nitrostyrene (T4CN), trans-β-nitrostyrene (TBN), 4-chlorocinnamic acid (4CA), and trans-3-(4-bromothiophen-2-yl)acrylic acid (T34BA) (Figures 16 and 17). The cells were analyzed by confocal microscopy for GFP-FAK localization. DMSO treatment served as a vehicle control. […] Additional substituents at the aromatic structures, such as halogen atoms or hydroxy groups may contribute to the reactivity of the compound, but are not essential. Based on these findings, the inventors have extended their structure activity-relationship studies and synthesized additional related compounds, which, similar to Mb31, displace FAK and paxillin at concentrations below 10µM (++), displace FAK and paxillin at concentrations above 10 µM (+), or lack FAK and paxillin displacing activity (-). All these substances were then also nicknamed in the FLocker terminology, resulting in FLocker1 - FLocker24 (Table 2). Table 2: Overview of FootLocker nomenclature, their chemical notation/structure and the activity towards FAK/Paxillin displacement

[1] = system: MDA-MB-231 breast cancer cells; assay: In vitro wound healing assay; format: cell-based, human; details: 3 µM, 25 h, serum-containing growth medium
Description: Image J was used to automatically quantify FAK-containing focal adhesions due to local maxima of fluorescence intensity in the GFP-channel (5 to 70 pixel). The number of cells was automatically counted in the Hoechst channel. To test reproducibility of the system 40 control wells were quantified wherein four positions for each well were imaged. […] GFP-FAK mouse embryonic fibroblasts were seeded on fibronectin and incubated for 1 h with the indicated concentrations of the small compounds, respectively. […] GFP-FAK mouse embryonic fibroblasts were seeded on fibronectin and serum-starved overnight. The indicated concentrations of Mb31 were applied for 30 min. Cells were lysed and analyzed for paxillin and FAK protein level as well as FAK Tyr397 phosphorylation. […] The purified kinase domain of FAK was incubated with increasing amounts of Mb31 for 1 h at 30°C together with poly-Glu-Tyr as a FAK substrate. […] Serum-starved GFP-FAK mouse embryonic fibroblasts were stimulated with normal growth medium and incubated for 5 h with the indicated concentrations of the small molecule compounds, respectively. Cell viability was assessed by MTT assay. […] GFP-FAK MEFs were seeded on fibronectin and serum-starved overnight. Migration was stimulated by replacing the medium with normal growth medium. Migration of single cells was tracked for 8 h in 30 min intervals. Migration was recorded from cells that were cultured without serum (A), with serum (B) or with serum in the presence of 3 µM Mb31 (C). […] (A) GFP-FAK MEFs were seeded and serum-starved as in Figure 10. Cell migration was stimulated with normal growth medium and single cells were tracked for 5 h. (B) Mb31 was added and the same cells were tracked for additional 5 h. (C) Mean velocities of differently treated cells were plotted over time. […] NIH-v-Src fibroblasts were seeded on 2 µg/ml FN in DMEM/0.5%BSA and stimulated with 10 ng/ml EGF or kept unstimulated. […] Mouse embryonic fibroblasts (MEFs) were transfected with talin-mCherry and talin dynamics analyzed in focal adhesions using fluorescence recovery after photobleaching (FRAP). Cells were left untreated (A) or treated with 10 µM of Mb31 (B). In untreated cells, the mCherry intensity recovered, indicating replacement of bleached by non-bleached talin and therefore turnover of talin at focal adhesions. […] (C) Wound closure was microscopically analyzed and evaluated using ImageJ software.
To determine if the migration of transformed cells can be blocked by FLocker1 and related compounds, human breast carcinoma cells (MDA-MB-231) were used in in vitro wound healing assays. […] The ability of the cells to migrate and close the wound space was monitored by microscopy and quantified (Figure 18B and C).

NIH-v-Src fibroblasts = assay: EGF-stimulated cell migration of transformed cells; format: cell-based; details: 10 ng/ml EGF, tracked 6 h before and 6 h after addition
Description: Image J was used to automatically quantify FAK-containing focal adhesions due to local maxima of fluorescence intensity in the GFP-channel (5 to 70 pixel). The number of cells was automatically counted in the Hoechst channel. To test reproducibility of the system 40 control wells were quantified wherein four positions for each well were imaged. […] GFP-FAK mouse embryonic fibroblasts were seeded on fibronectin and incubated for 1 h with the indicated concentrations of the small compounds, respectively. […] GFP-FAK mouse embryonic fibroblasts were seeded on fibronectin and serum-starved overnight. The indicated concentrations of Mb31 were applied for 30 min. Cells were lysed and analyzed for paxillin and FAK protein level as well as FAK Tyr397 phosphorylation. […] The purified kinase domain of FAK was incubated with increasing amounts of Mb31 for 1 h at 30°C together with poly-Glu-Tyr as a FAK substrate. […] Serum-starved GFP-FAK mouse embryonic fibroblasts were stimulated with normal growth medium and incubated for 5 h with the indicated concentrations of the small molecule compounds, respectively. Cell viability was assessed by MTT assay. […] GFP-FAK MEFs were seeded on fibronectin and serum-starved overnight. Migration was stimulated by replacing the medium with normal growth medium. Migration of single cells was tracked for 8 h in 30 min intervals. Migration was recorded from cells that were cultured without serum (A), with serum (B) or with serum in the presence of 3 µM Mb31 (C). […] (A) GFP-FAK MEFs were seeded and serum-starved as in Figure 10. Cell migration was stimulated with normal growth medium and single cells were tracked for 5 h. […] Mouse embryonic fibroblasts (MEFs) were transfected with talin-mCherry and talin dynamics analyzed in focal adhesions using fluorescence recovery after photobleaching (FRAP). […] (C) Wound closure was microscopically analyzed and evaluated using ImageJ software.
To further determine whether Mb31 interferes with cell motility, GFP-FAK MEFs were serum-stimulated and migration was quantified on a single cell basis (Figures 11 and 12). […]

T1 sequence (P34152 whole entry): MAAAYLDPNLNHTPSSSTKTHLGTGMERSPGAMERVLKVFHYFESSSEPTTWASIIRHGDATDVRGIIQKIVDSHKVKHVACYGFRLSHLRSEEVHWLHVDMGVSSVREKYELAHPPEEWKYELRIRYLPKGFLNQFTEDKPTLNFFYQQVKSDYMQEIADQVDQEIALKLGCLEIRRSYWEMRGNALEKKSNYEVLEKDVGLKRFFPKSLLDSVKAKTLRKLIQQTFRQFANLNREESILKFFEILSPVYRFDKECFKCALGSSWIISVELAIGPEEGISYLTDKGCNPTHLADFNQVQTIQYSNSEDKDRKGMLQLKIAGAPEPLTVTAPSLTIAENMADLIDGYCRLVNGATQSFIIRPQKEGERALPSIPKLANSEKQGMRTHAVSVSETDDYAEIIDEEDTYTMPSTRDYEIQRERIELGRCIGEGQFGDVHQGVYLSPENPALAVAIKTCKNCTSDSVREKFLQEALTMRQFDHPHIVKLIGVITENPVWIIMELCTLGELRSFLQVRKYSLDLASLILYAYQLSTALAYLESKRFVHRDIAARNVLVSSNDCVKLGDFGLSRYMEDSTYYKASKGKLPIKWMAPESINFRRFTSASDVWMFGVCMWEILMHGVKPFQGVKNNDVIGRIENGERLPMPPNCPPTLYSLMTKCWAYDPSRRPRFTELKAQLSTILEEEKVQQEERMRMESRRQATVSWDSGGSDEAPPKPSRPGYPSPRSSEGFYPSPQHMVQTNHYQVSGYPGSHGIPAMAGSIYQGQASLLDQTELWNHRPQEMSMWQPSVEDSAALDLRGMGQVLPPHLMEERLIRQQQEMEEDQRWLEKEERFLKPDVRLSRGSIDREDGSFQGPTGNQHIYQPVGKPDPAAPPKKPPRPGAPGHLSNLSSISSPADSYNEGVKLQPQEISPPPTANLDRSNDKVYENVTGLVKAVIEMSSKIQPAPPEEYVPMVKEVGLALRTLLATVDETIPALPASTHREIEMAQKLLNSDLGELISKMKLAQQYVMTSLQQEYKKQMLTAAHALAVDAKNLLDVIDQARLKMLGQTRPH
T1 sequence (Q8VI36 whole entry): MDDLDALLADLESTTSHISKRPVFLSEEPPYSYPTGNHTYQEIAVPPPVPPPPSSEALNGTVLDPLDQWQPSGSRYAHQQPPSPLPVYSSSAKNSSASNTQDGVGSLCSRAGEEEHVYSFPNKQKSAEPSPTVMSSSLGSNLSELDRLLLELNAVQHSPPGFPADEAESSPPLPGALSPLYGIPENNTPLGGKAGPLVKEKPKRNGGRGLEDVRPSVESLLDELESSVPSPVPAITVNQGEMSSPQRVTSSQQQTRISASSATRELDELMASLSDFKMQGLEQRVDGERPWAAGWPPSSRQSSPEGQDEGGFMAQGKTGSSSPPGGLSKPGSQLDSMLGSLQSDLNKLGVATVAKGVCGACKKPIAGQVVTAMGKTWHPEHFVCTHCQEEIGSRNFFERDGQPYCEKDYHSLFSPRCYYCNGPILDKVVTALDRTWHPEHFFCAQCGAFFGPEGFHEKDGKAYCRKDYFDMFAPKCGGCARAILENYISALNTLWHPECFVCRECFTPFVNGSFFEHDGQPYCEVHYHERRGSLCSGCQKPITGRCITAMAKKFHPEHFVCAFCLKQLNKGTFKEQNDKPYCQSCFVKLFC

FAK displacing ability (FAK/Paxillin; GFP-FAK mouse fibroblasts, 30 min, 1, 10 or 20 µM)	SMILES	compounds showing the most prominent effect on protein-protein interactions at focal adhesion site (FAK/Paxillin)	disruption of protein-protein interactions at focal adhesion site (FAK/Paxillin)	migration of cancer cells / wound closure [1]	migration of EGF-stimulated cells (NIH-v-Src fibroblasts)
	O=[N+]([O-])/C=C/c1ccc(F)cc1 [FootLocker 14, (E)-1-fluoro-4-(2-nitrovinyl)benzene]	most prominent effect	efficiently disrupt protein-protein interactions at focal adhesion site	retarded the migration of the cancer cells	
without FAK displacing ability	O=C(O)/C=C/c1cc(Br)cs1 [FootLocker 24, trans-3-(4-Bromothiophen-2-yl)acrylic acid, reference compound]				no effect
	CN(c1ccccc1CNc1nc(Nc2ccc3c(c2)CC(=O)N3)ncc1C(F)(F)F)S(C)(=O)=O [PF431396]				efficiently inhibit the migration
